Experimental data taken from patent US20030206895A1, “Antioxidant composition comprising propionyl L-carnitine and a flavonoid against throm-bosis and atherosclerosis” (priority 1998, published 2003).

How the values were obtained:
[1] = Toxicology, single oral administration in the rat; details: up to 4 g/kg
[2] = tested on: mice treated with mitomycin C; assay: Tests on leukopenia induced by mitomycin C; format: in vivo; details: for Number of leukocytes after 5 days / Number of leukocytes after 10 days / Number of leukocytes after 12 days / protective effect against leukopenia and toxicity of mitomycin C (in words): mice; for Number of leukocytes after 5 days / Number of leukocytes after 10 days / Number of leukocytes after 12 days / % Mice surviving after 5 days / % Mice surviving after 10 days / % Mice surviving after 12 days: mitomycin C 50 μg/mouse i.p. five days, oral carnitine(s) 300 mg/kg, quercetin 100 mg/kg; for protective effect against leukopenia and toxicity of mitomycin C (in words): oral
Method: To evaluate the immunostimulatory effect of the combination of propionyl L-carnitine or carnitine mixture plus quercetin, the effect of these products was evaluated on the toxic and immunosuppressive activity induced by mitomycin C.

[3] = tested on: anaphylactic shock in guinea-pigs; assay: Anaphylactic shock tests (horse serum sensitisation); format: in vivo; details: oral; for Surviving/treated animals: carnitine(s) 300 mg/kg, quercetin 50 mg/kg
Method: These tests were performed using male albino guinea-pigs with a mean weight of 300 g; the animals received intraperitoneal injections of 1 cc of horse serum diluted 1:10.
After twenty-five days, intravenous injection of 1 cc of horse serum triggered anaphylactic shock with onset of bronchospasm and death of the animals. Five days before the shock-triggering injection, the sensitised animals were treated orally either with propionyl L-carnitine (300 mg/kg), or with carnitine mixture (300 mg/kg), or with quercetin (50 mg/kg), or with various combinations of these compounds.

[4] = tested on: experimental atherosclerosis in rabbits; assay: Antiatherosclerotic activity tests: biochemical and histological parameters, arteriosclerotic lesions of heart and aorta; format: in vivo, New Zealand rabbits; details: rabbit, cholesterol-enriched diet, thirty days; carnitine(s) 400 mg/kg, quercetin 50 mg/kg
Method: (§1) In these tests, experimental atherosclerosis was induced in rabbits by administering 0.5% of cholesterol by weight together with the standard diet.
The liver was then removed from each animal and used to assay total cholesterol and triglycerides according to the method of Dehoff (Dehoff J. L., Clin. Chem., 24, 433, 1978) and Levy (Levy A., Advances in Automated Analysis, 497—Thurman—Miami, 1972). Arteriosclerotic lesions at the level of the heart and aorta were assessed according to the Klurfield method (Klurfield D. M., J. Med., 10, 35, 1979), grading them from I to IV according to the severity of the damage detected.
The greatest degree of protective activity, however, is that achieved when carnitine and quercetin are administered in combination.

[5] = tested on: oedema induced in the rat paw by carrageenin; assay: Anti-inflammatory activity tests: carrageenin-induced oedema of the rat paw; format: in vivo; details: for anti-oedema / anti-inflammatory effect (in words): rat paw, carrageenin
Method: To this end, 0.1 cc of a 1% carrageenin solution (Sigma, St, Louis, USA) were injected in the subplantar zone of the rat paw. The volume of oedema of the paw was measured by means of a mercury plethysmograph at intervals of one hour over the four-hour period following injection of carrageenin. One hour prior to injection, of carrageenin the animals received oral administrations either of propionyl L-carnitine (300 mg/kg and 150 mg/kg), or carnitine mixture (acetyl L-carnitine, propionyl L-carnitine, isovaleryl L-carnitine; 300 mg/kg and 150 mg/kg), or quercetin (100 mg/kg and 50 mg/kg), or various combinations of these compounds.

[6] = tested on: platelet aggregation induced by collagen; assay: Platelet aggregation tests (collagen-induced, Born photometric method); format: cell-based, human (healthy volunteers); details: 10 minutes' incubation
Method: Blood samples taken from healthy volunteers were used for these tests.
The blood samples were treated with sodium citrate and centrifuged for 8 minutes at 100 rpm. The number of platelets was counted and brought to a fixed level of […] by adding platelet poor plasma (PPP) where necessary.
Platelet aggregation was induced using collagen (2.5 μg/ml, 5 μg/ml) as the aggregating agent and determined photometrically according to the method described by Born (Born G. V. R., Nature, 194, 927, 1962).
Platelet aggregation was measured in baseline conditions and after 10 minutes' incubation with quercetin or propionyl L-carnitine or with a combination of quercetin and propionyl L-carnitine in the same amounts.
The propionyl L-carnitine doses were 10 μg and 20 μg/ml, while the quercetin doses were 0.1 μg and 0.25 μg/ml.

[7] = tested on: hypercholesterolaemic rabbits; assay: Antiatherosclerotic activity tests: plasma lipoprotein concentrations; format: in vivo, New Zealand rabbits; details: thirty days, carnitine(s) 400 mg/kg, quercetin 50 mg/kg
Text: as §1
After thirty days' treatment, a blood sample was taken from the central artery of the ear in each animal and used to assay the lipoproteins present according to the method described by Hatch (Hatch F. T., Advan. Lipid Res., 6, 1, 1968).

[8] = tested on: hypercholesterolaemic rabbits; assay: Antiatherosclerotic activity tests: liver total cholesterol and triglycerides; format: in vivo, New Zealand rabbits; details: thirty days, carnitine(s) 400 mg/kg, quercetin 50 mg/kg
Method: The liver was then removed from each animal and used to assay total cholesterol and triglycerides according to the method of Dehoff (Dehoff J. L., Clin. Chem., 24, 433, 1978) and Levy (Levy A., Advances in Automated Analysis, 497-Thurman-Miami, 1972). Arteriosclerotic lesions at the level of the heart and aorta were assessed according to the Klurfield method ([…]. Med., 10, 35, 1979), grading them from I to IV according to the severity of the damage detected.

[9] = rat, oral, carnitine(s) 300 mg/kg and/or quercetin 100 mg/kg
[10] = rat, oral, carnitine(s) 150 mg/kg and/or quercetin 50 mg/kg

| Compound | Number of leukocytes after 5 days [2] | Number of leukocytes after 10 days [2] | Number of leukocytes after 12 days [2] | protective effect against leukopenia and toxicity of mitomycin C (in words) [2] | % Mice surviving after 5 days [2] | % Mice surviving after 10 days [2] | % Mice surviving after 12 days [2] | protection against death by anaphylactic shock (in words) [3] | Surviving/treated animals [3] | biochemical and histological parameters of experimentally induced atherosclerosis [4] | anti-oedema / anti-inflammatory effect (in words) [5] | % reduction of carrageenin-induced oedema after 1 h [5, 9] | % reduction of carrageenin-induced oedema after 2 h [5, 9] | % reduction of carrageenin-induced oedema after 3 h [5, 9] | Plasma HDL [7] | Plasma LDL [7] | Plasma VLDL [7] | Liver triglycerides [8] | further results |
| --- | --- | --- | --- | --- | --- | --- | --- | --- | --- | --- | --- | --- | --- | --- | --- | --- | --- | --- | --- |
| CCC(=O)O[C@H](CC(=O)[O-])C[N+](C)(C)C [Propionyl L-carnitine, propionyl L-carnitine] | 6,000 ± 310 | 5,400 ± 280 | 2,100 ± 125 | modest | 60% | 45% | 30% | no protective effect | 2/10 | capable of reducing | modest anti-oedema effect | 12 ± 0.1% | 10 ± 0.2% | 6 ± 0.5% | 26.4 ± 3.9 mg/dL | 380 ± 21.5 mg/dL | 855 ± 32.5 mg/dL | 165 ± 14.5 mg/g | signs of toxicity [1]: without any signs of toxicity; modification of platelet aggregating action induced by collagen ([6]; propionyl L-carnitine 10 μg and 20 μg/ml): did not prove capable of modifying |
| O=c1c(O)c(-c2ccc(O)c(O)c2)oc2cc(O)cc(O)c12 [Quercetin, quercetin] | 5,600 ± 480 | 4,800 ± 410 | 2,800 ± 310 | modest | 70% | 30% | 30% | no protective effect | 3/10 | good inhibitory activity | modest anti-oedema effect | 18 ± 1.2% | 22 ± 2.5% | 20 ± 19% | 28.6 ± 3.8 mg/dL | 298 ± 30.1 mg/dL | 816 ± 37.5 mg/dL | 130 ± 14.5 mg/g | % reduction of carrageenin-induced oedema after 1 h [5, 10]: 8 ± 0.6%; % reduction of carrageenin-induced oedema after 2 h [5, 10]: 10 ± 0.2%; % reduction of carrageenin-induced oedema after 4 h [5, 9]: 18 ± 1.5%; reduction of collagen-induced platelet aggregation ([6]; quercetin 0.25 μg): 50% |
